In patent US20250051355A1, “COMPOUNDS, COMPOSITIONS, AND METHODS” (ACONCAGUA BIO, INC., priority 2023, published 2025) one finds EC50 data, which are given here for 13 compounds.

Assay [1] has as its target human calcitonin receptor (CTR) and RAMP3 (AMY3) (Homo sapiens, UniProt O60896+P30988). Kind of assay: Amylin Receptor cAMP Assay II. The assay is classed as cell-based. As to conditions: COS-7/AMY3 cells, cAMP dynamic 2 kit, read-out: Amylin Receptor cAMP Stimulation Activity: EC50. An excerpt:
Amylin Receptor cAMPAssay II
AMYRs are heterodimers of the class B calcitonin (CT) G-protein-coupled receptor (CTR) and receptor activity-modifying proteins (RAMPs). All three RAMPs can interact with the CTR and form AMY1, AMY2, AMY3 with RAMP1, RAMP2 and RAMP3, respectively. Like other class B1 GPCRs, the CT receptor family is canonically coupled to Gs-mediated cAMP production, and measurement of cAMP accumulation has been the primary assay used to determine peptide selectivity and potency.
(§1) To optimize functional activity directed toward Gas coupling, COS-7 cells were stably transfected with human calcitonin receptor (CTR) and RAMP3, simultaneously. 100×concentration of compound working solutions were prepared with 4-fold serial dilution in 384-well Echo LDV plate (Labcyte, Cat #LP-0200-BC). 200 nL/well 100×concentration of compound working solutions were moved to 384-well white microplate (Perkin Elmer, Cat #6007680) using Labcyte ECHO550. […] cells/mL COS-7/AMY3 cell suspensions prepared with assay buffer [HBSS containing 20 mM HEPES (Gibco, Cat #15630-080), 0.5 mM IBMX (Sigma, Cat #15879) and 0.1% Casein (Sigma, Cat #C4765)], 20 μL cell suspensions were added to each well of previous generated assay plate which already contains 200 nL compound at 100×concentration using ThermoFisher Multidrop Combi (2000 cells/well). Seal the plate and incubate at 37° C. with 5% CO2 for 30 min.
After incubation, the cAMP assay signal was generated using cAMP dynamic 2 kit (Revvity, Cat #62AM4PEC). 10 μL cAMP-d2 working solution was added to each well, followed by 10 μL Anti-cAMP antibody-cryptate working solution which was added to each well using CERTUS FLEX LIQUID DISPENSER The samples were then incubated at room temperature for 1 hour protected from light. the fluorescence was read at 665 and 615 nm with Reader PerkinElmer EnVision 2105.

Assay [2] has as its target T1, human calcitonin receptor (CTR) (Homo sapiens, UniProt P30988).
T1 construct: expressed in transfected cells; host or cells: COS-7 (COS7-human CTR Clone #2)
T1 sequence (P30988 25-474): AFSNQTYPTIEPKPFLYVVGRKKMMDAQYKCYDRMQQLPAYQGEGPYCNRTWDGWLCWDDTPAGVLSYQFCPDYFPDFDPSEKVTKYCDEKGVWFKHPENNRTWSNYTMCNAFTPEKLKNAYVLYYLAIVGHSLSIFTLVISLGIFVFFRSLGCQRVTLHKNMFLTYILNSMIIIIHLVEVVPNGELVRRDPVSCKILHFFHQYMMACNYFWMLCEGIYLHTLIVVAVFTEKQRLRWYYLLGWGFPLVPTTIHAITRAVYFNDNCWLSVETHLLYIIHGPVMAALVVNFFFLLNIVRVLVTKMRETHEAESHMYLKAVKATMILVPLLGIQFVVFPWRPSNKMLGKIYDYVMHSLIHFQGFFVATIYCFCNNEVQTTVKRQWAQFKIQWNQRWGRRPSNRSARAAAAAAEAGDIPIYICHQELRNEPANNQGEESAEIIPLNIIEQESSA
Briefly: Calcitonin receptor (CTR) cAMP Assay. It counts as cell-based. The settings on record: COS7-human CTR Clone #2 cells, cAMP dynamic 2 kit; read-out: Calcitonin Receptor cAMP Stimulation Activity: EC50.
Source text: Calcitonin receptor (CTR) cAMPAssay
The calcitonin receptor (CTR) belongs to the subfamily of GPCRs known as the secretin or ‘B’ family of GPCRs. Like other class B1 GPCRs, the CT receptor family is canonically coupled to Gs-mediated cAMP production, and measurement of cAMP accumulation has been the primary assay used to determine peptide selectivity and potency.
as §1, with “to create COS7-human CTR Clone #2 stable cell line. 100× concentration” for “and RAMP3, simultaneously. 100×concentration”, “COS7-human CTR Clone #2” for “COS-7/AMY3”
After incubation, the cAMP assay signal was generated using cAMP dynamic 2 kit (Revvity, Cat #62AM4PEC). […] cAMP-d2 working solution was added to each well, followed by 10 μL Anti-cAMP antibody-cryptate working solution which was added to each well using CERTUS FLEX LIQUID DISPENSER The samples were then incubated at room temperature for 1 hour protected from light. the fluorescence was read at 665 and 615 nm with Reader PerkinElmer EnVision 2105.

Bounds are passed on as bounds.

human calcitonin receptor (CTR) and RAMP3 (AMY3), sequence (O60896 24-148, one chain of several): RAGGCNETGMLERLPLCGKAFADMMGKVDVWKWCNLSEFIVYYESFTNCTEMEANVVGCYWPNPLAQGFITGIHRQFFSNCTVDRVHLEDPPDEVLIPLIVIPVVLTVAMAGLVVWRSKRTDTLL

As a reminder, the EC50 is the concentration that produces a half-maximal response. Regarding `Cc1noc(-c2c(CCC3CCOCC3)nc3c(c2-c2cc4ccnc(N[C@@H]5CCc6ncccc65)c4s2)S(=O)(=O)CC3C(C)C)n1` (stereo partly drawn) [Compound 102, N—(R)-4-aza-1-indanyl(2-(3-isopropyl-6-(3-methyl-1,2,4-oxadiazol-5-yl)-1,1-dioxo-5-[2-(tetrahydro-2H-pyran-4-yl)ethyl]-1λ^6-thia-4-aza-7-indanyl}-1-thia-6-aza-7-indenyl)amine], the EC50 was 265 nM in assay [1] and 50 nM in assay [2].
Turning to `Cc1nnc(-c2c(CCC3CCOCC3)nc3c(c2-c2cc4ncnc(N[C@@H]5CCc6ncccc65)c4s2)S(=O)(=O)CC3C2CC2)o1` (stereo partly drawn) [Compound 103, N—(R)-4-aza-1-indanyl(2-(3-cyclopropyl-6-(5-methyl-1,3,4-oxadiazol-2-yl)-1,1-dioxo-5-[2-(tetrahydro-2H-pyran-4-yl)ethyl]-1λ^6-thia-4-aza-7-indanyl}-1-thia-4,6-diaza-7-indenyl)amine], the EC50 was 1190 nM in assay [1] and 45.9 nM in assay [2].
For `Cc1nnc(-c2c(CCC3CCOCC3)nc3c(c2-c2ccc4c(c2)oc(=O)n4Cc2ccc(C#N)c(F)c2)C(=O)N2CCOC[C@@H]32)o1` [Compound 104, 4-[(6-((4aR)-7-(5-methyl-1,3,4-oxadiazol-2-yl)-9-oxo-6-[2-(tetrahydro-2H-pyran-4-yl)ethyl]-1,2,4,4a-tetrahydro-9H-3-oxa-5,9a-diazafluoren-8-yl}-2-oxo-1,3-benzoxazol-3-yl)methyl]-2-fluorobenzonitrile], in that order: 42.4 nM and 1.25 nM.
For `Cc1nnc(-c2c(CCC3CCOCC3)nc3c(c2-c2ccc4c(cnn4Cc4ccc(C#N)c(F)c4)c2)C(=O)N2CCOC[C@@H]32)o1` [Compound 105, 4-[(5-((4aR)-7-(5-methyl-1,3,4-oxadiazol-2-yl)-9-oxo-6-[2-(tetrahydro-2H-pyran-4-yl)ethyl]-1,2,4,4a-tetrahydro-9H-3-oxa-5,9a-diazafluoren-8-yl}-1H-indazol-1-yl)methyl]-2-fluorobenzonitrile], in that order: 385 nM and 9.56 nM.
In the case of `Cc1nnc(-c2c(CCC3CCOCC3)nc3c(c2C2CCN(C(=O)Cc4ccc(F)c(F)c4)CC2)S(=O)(=O)CC3C(C)C)o1` (centres unmarked) [Compound 106, 7-{1-[2-(3,4-difluorophenyl)acetyl]-4-piperidyl}-3-isopropyl-6-(5-methyl-1,3,4-oadiazol-2-yl)-5-[2-(tetrahydro-2H-pyran-4-yl)ethyl]-1λ^6-thia-4-aza-1,1-indandione], the EC50 in assay [1] is above 100 nM; in assay [2], 3230 nM.
The matching figures for `Cc1nnc(-c2c(CCC3CCOCC3)nc3c(c2C2CCN(C(=O)Cc4ccc(F)c(F)c4)C2)S(=O)(=O)CC3C(C)C)o1` (centres unmarked) [Compound 107, 7-{1-[2-(3,4-difluorophenyl)acetyl]-3-pyrrolidinyl}-3-isopropyl-6-(5-methyl-1,3,4-oxadiazol-2-yl)-5-[2-(tetrahydro-2H-pyran-4-yl)ethyl]-1D′-thia-4-aza-1,1-indandione]: above 100 nM and 6580 nM.
The matching figures for `Cc1nnc(-c2c(CCC3CCOC(C)(C)C3)nc3c(c2-c2cc4ncnc(N[C@@H]5CCc6ncccc65)c4s2)S(=O)(=O)CC3C(C)C)o1` (stereo partly drawn) [Compound 108, N—(R)-4-aza-1-indanyl(2-(5-[2-(2,2-dimethyltetrahydro-2H-pyran-4-yl)ethyl]-3-isopropyl-6-(5-methyl-1,3,4-oxadiazol-2-yl)-1,1-dioxo-1λ^6-thia-4-aza-7-indanyl}-1-thia-4,6-diaza-7-indenyl)amine]: 462 nM and 42.1 nM.
As to `Cc1nnc(-c2c(CCC3CCOCC3)nc3c(c2-c2ccc4c(c2)oc(=O)n4Cc2ccc(C#N)c(F)c2)S(=O)(=O)CC3C(C)C)o1` (centres unmarked) [Compound 109, 2-fluoro-4-[(6-(3-isopropyl-6-(5-methyl-1,3,4-oxadiazol-2-yl)-1,1-dioxo-5-[2-(tetrahydro-2H-pyran-4-yl)ethyl]-1λ^6-thia-4-aza-7-indanyl}-2-oxo-1,3-benzoxazol-3-yl)methyl]benzonitrile], the figures for the EC50 in assay [1] and in assay [2] were 64.8 nM and 1.51 nM, respectively.
In the case of `Cc1nnc(-c2c(CCC3CCOCC3)nc3c(c2-c2ccc4c(ccn4C(C)c4ccc(C#N)c(F)c4)c2)C(=O)N2CCOC[C@@H]32)o1` (stereo partly drawn) [Compound 110, 4-[1-(5-((4aR)-7-(5-methyl-1,3,4-oxadiazol-2-yl)-9-oxo-6-[2-(tetrahydro-2H-pyran-4-yl)ethyl]-1,2,4,4a-tetrahydro-9H-3-oxa-5,9a-diazafluoren-8-yl}-1-indolyl)ethyl]-2-fluorobenzonitrile], the EC50 was found to be 62.4 nM in assay [1] and 6.16 nM in assay [2].
For `Cc1nnc(-c2c(CCC3CCOCC3)nc3c(c2-c2ccc4c(cnn4C(C)c4ccc(C#N)c(F)c4)c2)C(=O)N2CCOC[C@@H]32)o1` (stereo partly drawn) [Compound 111, 4-[1-(5-((4aR)-7-(5-methyl-1,3,4-oxadiazol-2-yl)-9-oxo-6-[2-(tetrahydro-2H-pyran-4-yl)ethyl]-1,2,4,4a-tetrahydro-9H-3-oxa-5,9a-diazafluoren-8-yl}-1H-indazol-1-yl)ethyl]-2-fluorobenzonitrile], in that order: 155 nM and 11.3 nM.
For `Cc1nnc(-c2c(CCC3CCOC(C)(C)C3)nc3c(c2-c2ccc4c(c2)oc(=O)n4Cc2ccc(C#N)c(F)c2)C(=O)N2CCOC[C@@H]32)o1` (stereo partly drawn) [Compound 112, 4-[(6-((4aR,9aR)-6-[2-(2,2-dimethyltetrahydro-2H-pyran-4-yl)ethyl]-7-(5-methyl-1,3,4-oxadiazol-2-yl)-9-oxo-1,2,4,4a-tetrahydro-9H-3-oxa-5,9a-diazafluoren-8-yl}-2-oxo-1,3-benzoxazol-3-yl)methyl]-2-fluorobenzonitrile], in that order: 124 nM and 5.3 nM.
The matching figures for `Cc1nnc(-c2c(CCC3CCOCC3)nc3c(c2-c2cc4ccnc(N[C@@H]5CCc6ncccc65)c4s2)c(=O)n2n3CCC2)o1` [Compound 113, 9-{7-[(R)-4-aza-1-indanylamino]-1-thia-6-aza-2-indenyl}-10-(5-methyl-1,3,4-oxadiazol-2-yl)-11-[2-(tetrahydro-2H-pyran-4-yl)ethyl]-2,6,12-triazatricyclo[6.4.0.0^2,6]dodeca-1(12),8,10-trien-7-one]: 1080 nM and 95.6 nM.
On to `Cc1nnc(-c2c(CCC3CCOCC3)nc3c(c2-c2ccc4c(c2)oc(=O)n4C(C)c2ccc(C#N)c(F)c2)c(=O)n2n3CCC2)o1` (centres unmarked) [Compound 114, 2-fluoro-4-[1-(6-(10-(5-methyl-1,3,4-oxadiazol-2-yl)-7-oxo-11-[2-(tetrahydro-2H-pyran-4-yl)ethyl]-2,6,12-triazatricyclo[6.4.0.0^2,6]dodeca-1(12),8,10-trien-9-yl}-2-oxo-1,3-benzoxazol-3-yl)ethyl]benzonitrile], for which the EC50 in assay [1] was determined as 135 nM; in assay [2], 4.15 nM.
